Reference: patent publication EP1377579B1 (Aventis Pharmaceuticals Inc., priority 2000, dated 2002)
Where a name gives a salt, the structure may show the parent alone. Read-outs that look alike come from different tables or passages of the source.

Key:
[1] = molecular target: cdk2/cyclin E (Homo sapiens, UniProt P24941); assay: Cyclin-dependent kinase assay, cdk2/cyclin E
[2] = tested on: NCI-H460; assay: In vitro proliferation assay (MTT), NCI-H460; type: cell-based; details: Homo sapiens, NCI-H460; MTT assay; value (SD, n) where given; read-out: H-460 Lung (IC50 µM)
Method: (§1) The proliferation of tumor cells can be measured using a tetrazolium salt-based assay known as the MTT (3-[4,5-Dimethylthiazol-2-yl]-2,5-diphenyltetrazolium bromide) assay. The proliferation test is performed essentially as described by Carmichael et al., Cancer Res. 47: 936-942, 1987. For the assay, the cell lines are plated onto 96 well plates at 1000 to 2500 cells/well (depending on the properties of the individual cell lines), left to attach and recover overnight. […] After 3 days, the cells are incubated with MTT dye (3-[4,5-Dimethylthiazol-2-yl]-2,5-diphenyltetrazolium bromide, Sigma # M5655, 10 mg/ml in Hank's Buffered Saline) to estimate the amount of live cells remaining vs. concentration for the test compounds. Specifically, MTT solution is added to a final concentration of […] and the plates incubated at 37 C for 2 to 4 hr. The MTT and culture medium is then removed from the cultures and 200 µl of DMSO is added to solubilize the dye from the cell layer. The absorbance at 570 nm is determined for each culture using a Spectramax plate reader (Molecular Devices).
(§2) IC50s were determined from the raw data from either the MTT or SRB assays.
All of the cell lines were obtained from American Type Tissue Collection, with the ATCC accession number in parentheticals. MCF-7 and MDA-MB-231 cells were grown in improved minimum essential medium (Biofluids) without phenol red, supplemented with 5 % fetal bovine serum, 0.01 mg/ml gentamicin and 3 mM L-glutamine. All of the other cell lines were grown in RPMI 1640 medium (Life Technologies) supplemented with 5 % fetal bovine serum, 0.01 mg/ml gentamicin and 3 mM L-glutamine TABLE 3

[3] = tested on: Colo-205; assay: In vitro proliferation assay (MTT), Colo-205; type: cell-based; details: Homo sapiens, COLO 205; MTT assay; value (SD, n) where given; read-out: Colo-205 Colon (IC50 µM)
Method: as §1, §2

[4] = molecular target: cdk4/cyclin D1 (Homo sapiens, UniProt P11802); assay: Cyclin-dependent kinase assay, cdk4/cyclin D1; type: biochemical
cdk4/cyclin D1, sequence (P11802 whole entry): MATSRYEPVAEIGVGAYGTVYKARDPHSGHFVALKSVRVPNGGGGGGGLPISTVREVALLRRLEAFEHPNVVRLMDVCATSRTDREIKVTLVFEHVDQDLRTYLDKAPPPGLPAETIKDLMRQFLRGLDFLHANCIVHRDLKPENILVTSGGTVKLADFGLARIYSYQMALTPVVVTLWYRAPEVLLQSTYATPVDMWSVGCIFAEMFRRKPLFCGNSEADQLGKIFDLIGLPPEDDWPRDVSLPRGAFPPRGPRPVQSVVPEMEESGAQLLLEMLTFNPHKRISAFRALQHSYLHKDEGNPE
cdk4/cyclin D1, sequence (P24385 whole entry partner): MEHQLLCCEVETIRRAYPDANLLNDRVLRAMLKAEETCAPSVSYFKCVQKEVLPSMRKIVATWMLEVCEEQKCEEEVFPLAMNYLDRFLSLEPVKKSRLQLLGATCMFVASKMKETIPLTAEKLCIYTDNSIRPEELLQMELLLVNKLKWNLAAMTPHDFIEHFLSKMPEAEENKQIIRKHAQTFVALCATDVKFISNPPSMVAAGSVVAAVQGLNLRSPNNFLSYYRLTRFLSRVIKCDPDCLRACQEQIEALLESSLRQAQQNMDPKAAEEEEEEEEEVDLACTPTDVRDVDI

[5] = tested on: PC-3; assay: In vitro proliferation assay (MTT), PC-3; type: cell-based, human; details: value (SD, n) where given, read-out: PC-3 Prostate (IC50 µM)
How it was run: (§3)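 A570 readout of DMSO-solubilized MTT formazan after 3-day compound exposure; IC50 from raw data. Cells plated 1000–2500/well and recovered overnight before dosing.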

[6] = tested on: MDA-MB-435; assay: In vitro proliferation assay (MTT), MDA-MB-435; type: cell-based, human; details: value (SD, n) where given, read-out: MB-435 Breast (IC50 µM)
How it was run: as §3

[7] = molecular target: cdk1/cyclin B (Homo sapiens, UniProt P06493); assay: Cyclin-dependent kinase assay, cdk1/cyclin B
cdk1/cyclin B, sequence (P06493 whole entry): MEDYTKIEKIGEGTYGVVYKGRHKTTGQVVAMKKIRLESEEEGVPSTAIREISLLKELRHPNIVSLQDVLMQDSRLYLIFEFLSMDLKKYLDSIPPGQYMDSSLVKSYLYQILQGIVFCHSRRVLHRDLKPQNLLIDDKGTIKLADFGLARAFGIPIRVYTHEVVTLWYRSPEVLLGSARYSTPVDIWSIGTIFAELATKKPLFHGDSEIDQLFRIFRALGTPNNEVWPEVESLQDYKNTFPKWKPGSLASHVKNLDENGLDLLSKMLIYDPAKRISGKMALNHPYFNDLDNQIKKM
cdk1/cyclin B, sequence (P14635 whole entry partner): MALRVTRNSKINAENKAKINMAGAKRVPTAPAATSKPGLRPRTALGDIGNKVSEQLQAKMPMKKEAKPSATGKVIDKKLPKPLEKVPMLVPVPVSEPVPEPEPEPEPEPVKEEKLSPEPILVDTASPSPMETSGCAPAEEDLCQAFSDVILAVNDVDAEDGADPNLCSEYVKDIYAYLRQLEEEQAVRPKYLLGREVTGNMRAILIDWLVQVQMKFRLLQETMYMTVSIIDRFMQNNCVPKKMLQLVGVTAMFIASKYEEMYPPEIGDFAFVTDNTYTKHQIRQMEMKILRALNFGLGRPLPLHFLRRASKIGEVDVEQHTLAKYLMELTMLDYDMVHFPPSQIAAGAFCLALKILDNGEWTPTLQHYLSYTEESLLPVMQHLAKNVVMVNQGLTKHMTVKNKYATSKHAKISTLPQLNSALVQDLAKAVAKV

[8] = in vivo; details: mouse, in vivo, iv, 3 mg/kg
[9] = CDK2 IC50, nM, GST-pRb substrate, 10 µM ATP
[10] = cyclin D1/cdk4, GST-pRb substrate, 10 µM ATP
[11] = Homo sapiens, MDA-MB-435, MTT assay
[12] = CDK1 IC50, nM, Histone H1, 10 µM ATP

IC50 [1, 9] | IC50 [2] | IC50 [3] | IC50 [4, 10] | IC50 ([5]; Homo sapiens, PC-3, MTT assay) | IC50 [6, 11] | IC50 [7, 12] | AUC(0-inf) [8] | Cmax [8] | half-life [8] | Molecule | IC50 ([1]; read-out: CDK2 IC50, GST-pRb substrate, 10 µM ATP) | IC50 [4] | IC50 ([5]; MTT assay) | IC50 ([6]; MTT assay) | IC50 ([7]; read-out: CDK1 IC50, Histone H1, 10 µM ATP)
154 nM | 0.28 µM | < 0.02 µM | 485 nM | 0.45 µM | 0.31 µM | 76 nM |  |  |  | CC(CC(=O)N1CCC(Nc2nc(N[C@H]3CC[C@H](N)CC3)nc3c2ncn3C2CCCC2)CC1)CC(C)(C)C (mixture of isomers) [compound 45, (±)-trans-1-{4-[2-(4-Amino-cyclohexylamino)-9-cyclopentyl-9H-purin-6-ylamino]-piperidin-1-yl}-3,5,5-trimethyl-hexan-1-one dihydrochloride] |  |  |  |  | 
93 nM | 0.31 µM | 0.11 µM | 404 nM | 0.38 µM | 0.3 µM | 59 nM |  |  |  | CCC(C(=O)N1CCC(Nc2nc(N[C@H]3CC[C@H](N)CC3)nc3c2ncn3C2CCCC2)CC1)c1ccccc1 (relative stereo) [compound 41, trans-1-{4-[2-(4-Amino-cyclohexylamino)-9-cyclopentyl-9H-purin-6-ylamino]-piperidin-1-yl}-2-phenyl-butan-1-one dihydrochloride] |  |  |  |  | 
 |  |  |  |  |  |  | 531 ng·h/mL | 512 ng/mL | 1.7 h | NC1CCC(Nc2nc(NCCCc3ccccc3)c3ncn(C4CCCC4)c3n2)CC1 (centres unmarked) [MDL 107167] |  |  |  |  | 
98 nM | > 50 µM | > 50 µM | 555 nM | 0.78 µM | 0.69 µM | 64 nM |  |  |  | N[C@H]1CC[C@H](Nc2nc(NC3CCN(C(=O)c4ccc(F)cc4)CC3)c3ncn(C4CCCC4)c3n2)CC1 [compound 1, trans-1-{4-[2-(4-Amino-cyclohexylamino)-9-cyclopentyl-9H-purin-6-ylamino]-piperidin-1-yl}-1-(4-fluoro-phenyl)-methanone dihydrochloride] |  |  |  |  | 
92 nM | 0.15 µM | < 0.02 µM | 427 nM | 1.17 µM | 0.26 µM | 48 nM |  |  |  | N[C@H]1CC[C@H](Nc2nc(NC3CCN(C(=O)c4ccc(C(F)(F)F)cc4)CC3)c3ncn(C4CCCC4)c3n2)CC1 [compound 2, trans-1-{4-[2-(4-Amino-cyclohexylamino)-9-cyclopentyl-9H-purin-6-ylamino]-piperidin-1-yl}-1-(4-trifluoromethyl-phenyl)-methanone dihydrochloride] |  |  |  |  | 
339 nM | 0.33 µM | 0.16 µM | 641 nM | 0.72 µM | 0.7 µM | 197 nM |  |  |  | N[C@H]1CC[C@H](Nc2nc(NC3CCN(C(=O)c4cnc5ccccc5n4)CC3)c3ncn(C4CCCC4)c3n2)CC1 [compound 4, trans-1-{4-[2-(4-Amino-cyclohexylamino)-9-cyclopentyl-9H-purin-6-ylamino]-piperidin-1-yl}-1-quinoxalin-2-yl-methanone dihydrochloride] |  |  |  |  | 
 | 0.27 µM | < 0.02 µM |  | 0.66 µM | 0.43 µM |  |  |  |  | N[C@H]1CC[C@H](Nc2nc(NC3CCN(C(=O)c4ccc5c(c4)OCO5)CC3)c3ncn(C4CCCC4)c3n2)CC1 [compound 5, trans-1-{4-[2-(4-Amino-cyclohexylamino)-9-cyclopentyl-9H-purin-6-ylamino]-piperidin-1-yl}-1-benzo[1,3]dioxol-5-yl-methanone dihydrochloride] |  |  |  |  | 
76 nM | 0.53 µM | 0.03 µM |  | 0.29 µM | 0.22 µM |  |  |  |  | N[C@H]1CC[C@H](Nc2nc(NC3CCN(C(=O)/C=C/c4cccc(C(F)(F)F)c4)CC3)c3ncn(C4CCCC4)c3n2)CC1 [compound 44, trans-(E)-1-{4-[2-(4-Amino-cyclohexylamino)-9-cyclopentyl-9H-purin-6-ylamino]-piperidin-1-yl}-3-(3-trifluoromethyl-phenyl)-propenone dihydrochloride] |  |  |  |  | 
 | 0.4 µM | 0.29 µM |  | 0.69 µM | 0.52 µM |  |  |  |  | CC(C)[C@@H]1CC[C@@H](C)C[C@H]1OC(=O)N1CCC(Nc2nc(N[C@H]3CC[C@H](N)CC3)nc3c2ncn3C2CCCC2)CC1 [compound 86, trans-4-[2-(4-Amino-cyclohexylamino)-9-cyclopentyl-9H-purin-6-ylamino]-piperidine-1-carboxylic acid (1R,2S,5R)-2-isopropyl-5-methyl-cyclohexyl ester dihydrochloride] |  |  |  |  | 
41 nM |  |  | 986 nM | 1.9 µM | 1.53 µM | 170 nM |  |  |  | N[C@H]1CC[C@H](Nc2nc(NC3CCN(C(=O)Nc4c(F)cccc4C(F)(F)F)CC3)c3ncn(C4CCCC4)c3n2)CC1 [compound 201, trans-4-[2-(4-Amino-cyclohexylamino)-9-cyclopentyl-9H-purin-6-ylamino]-piperidine-1-carboxylic acid (2-fluoro-6-trifluoromethyl-phenyl)-amide dihydrochloride] |  |  |  |  | 
51 nM |  |  | 39 nM | 2.64 µM | 2.53 µM | 200 nM |  |  |  | CCCCNC(=O)N1CCC(Nc2nc(N[C@H]3CC[C@H](N)CC3)nc3c2ncn3C2CCCC2)CC1 [compound 204, trans-4-[2-(4-Amino-cyclohexylamino)-9-cyclopentyl-9H-purin-6-ylamino]-piperidine-1-carboxylic acid butylamide dihydrochloride] |  |  |  |  | 
232 nM |  |  | 3250 nM | 1.63 µM | 1.84 µM | 290 nM |  |  |  | N[C@H]1CC[C@H](Nc2nc(NC3CCN(C(=O)NC4CCCCC4)CC3)c3ncn(C4CCCC4)c3n2)CC1 [compound 205, trans-4-[2-(4-Amino-cyclohexylamino)-9-cyclopentyl-9H-purin-6-ylamino]-piperidine-1-carboxylic acid cyclohexylamide dihydrochloride] |  |  |  |  | 
7 nM |  |  | 85 nM | 2.89 µM | 2.68 µM | 210 nM |  |  |  | CCCNC(=O)N1CCC(Nc2nc(N[C@H]3CC[C@H](N)CC3)nc3c2ncn3C2CCCC2)CC1 [compound 206, trans-4-[2-(4-Amino-cyclohexylamino)-9-cyclopentyl-9H-purin-6-ylamino]-piperidine-1-carboxylic acid propylamide dihydrochloride] |  |  |  |  | 
8 nM |  |  | 73 nM | 0.68 µM | 0.47 µM | 180 nM |  |  |  | Cc1ccccc1NC(=O)N1CCC(Nc2nc(N[C@H]3CC[C@H](N)CC3)nc3c2ncn3C2CCCC2)CC1 [compound 208, trans-4-[2-(4-Amino-cyclohexylamino)-9-cyclopentyl-9H-purin-6-ylamino]-piperidine-1-carboxylic acid (2-methyl-phenyl)-amide dihydrochloride] |  |  |  |  | 
612 nM |  |  | 7000 nM | 0.56 µM | 0.69 µM | 197 nM |  |  |  | CC(C)n1cnc2c(NC3CCN(C(=O)Nc4ccc(OC(F)(F)F)cc4)CC3)nc(N[C@H]3CC[C@H](N)CC3)nc21 [compound 211, trans-4-[2-(4-Amino-cyclohexylamino)-9-isopropyl-9H-purin-6-ylamino]-piperidine-1-carboxylic acid (4-trifluoromethoxy-phenyl)-amide dihydrochloride] |  |  |  |  | 
 |  |  |  |  |  |  |  |  |  | trans 1-{4-[2-(4-Amino-cyclohexylamino)-9-cyclopentyl-9H-purin-6-ylamino]-piperidin-1-yl}-3-(2,5-dimethoxy-phenyl)-propan-1-one dihydrochloride [compound 34] | 58 nM | 997 nM | 0.67 µM | 0.69 µM | 31 nM
